We go through one molecule from publication PMC6537213, “Ellagic acid microspheres restrict the growth of Babesia and Theileria in vitro and Babesia microti in vivo” (Parasites & Vectors, 2019).

For orientation: EC50 means the concentration at which the effect is half-maximal. Read a high EC50 as weaker potency.

The subject of data set [1] is P. falciparum. Also on record: method as in PMID 19015354. As to conditions: cited from earlier work.
Data set [2] relates to B. divergens (Germany strain). The data set can be described thus: in vitro growth inhibition assay (SYBR Green I fluorescence), single drug and 1:1 combination. In kind it is cell-based, Babesia divergens. Here is the method:
(§1) A microaerophilic stationary-phase culture system was used to maintain Babesia parasite cultures for a long time. Briefly, B. caballi (USDA strain) was grown using equine red blood cells (RBCs) in GIT medium supplemented with 40% equine serum. Theileria equi (USDA strain) was grown in equine RBCs in Medium 199 (M199; Sigma-Aldrich, Tokyo) supplemented with 40% equine serum, and hypoxanthine (MP Biomedicals, Santa Ana, CA, USA) at a final concentration of 13.6 μg/ml was used as a vital supplement. Babesia bovis (Texas strain) and B. bigemina (Argentina strain) were grown in bovine RBCs in M199 medium supplemented with 40% bovine serum. Meanwhile, B. divergens (Germany strain) was grown in bovine RBCs in medium RPMI 1640 (Sigma-Aldrich, Tokyo) supplemented with 40% bovine serum. All media included 60 U/ml penicillin G, 60 μg/ml streptomycin and 0.15 μg/ml amphotericin B (Sigma-Aldrich, St. Louis, MO, USA) to prevent bacterial contamination. The cultures were incubated at 37 °C in a humidified chamber with an atmosphere of 5% CO2, 5% O2 and 90% N2. Babesia microti (Munich strain) was recovered from − 80 °C stock, intraperitoneally injected in two 8-week old female BALB/c mice (Clea Japan, Tokyo, Japan), and the parasitemia was monitored every 2 days. The mice were euthanized using an anesthesia system containing isoflurane after parasitemia reached approximately 30%, and blood was collected by cardiac puncture to initiate the in vivo experiment. The animal experiment was conducted in accordance with the Regulations for Animal Experiments of Obihiro University of Agriculture and Veterinary Medicine, Japan (animal experiment accession number: 290168).
(§2) Assays were performed in accordance with the previously described protocol. Briefly, B. bovis, B. bigemina, B. divergens, B. caballi and T. equi cultures were harvested and adjusted to 1% parasitemia with fresh RBCs to start the inhibition assay. The assays were carried out using 96-well microtiter plates where only the 60 inner wells were used, while the peripheral wells were filled with sterile distillate water to reduce evaporation during incubation. In five 96-well plates, a volume of 2.5 µl each of B. bigemina- and B. bovis-iRBCs and 5 µl each of B. divergens-, B. caballi- and T. equi-iRBCs were added to each well in triplicate and mixed with a culture medium containing the drug concentrations to a total volume of 100 µl. Various concentrations of EA, β-CD EA, APSP EA, DA, CF and AQ were dissolved in a culture medium using two-fold dilution. Wells containing DMSO at a final concentration of 0.4% and iRBCs were used as a positive control, while wells with non-infected RBCs and culture medium were used as a negative control. Additionally, a drug combination assay was performed in parallel with the single drug assay at a constant ratio of 1:1, as described previously. […] The plates were incubated in a humidified incubator with 5% CO2, 5% O2 and 90% N2 for 4 days without changing the medium. On day 4, 100 µl of a lysis buffer containing 2 × SG1 was added to each well. The plates were wrapped with aluminum foil to avoid direct light exposure and incubated at room temperature. After 6 h, fluorescence values were measured using a fluorescence spectrophotometer (Fluoroskan Ascent; Thermo LabSystems, Oceanside, CA, USA) with excitation and emission wavelengths of 485 and 518 nm, respectively. The fluorescence data were subtracted from the negative control and used to calculate the IC50. […]

Data set [3] concerns Madin-Darby bovine kidney (MDBK) cell line. The data set can be described thus: cytotoxicity assay (CCK-8). In kind it is cell-based. Here is the method:
The MDBK cell line was maintained in 75 cm^2 culture flasks with Minimum Essential Medium Eagle (MEM; Gibco, Grand Island, NY, USA), while Dulbecco’s Modified Eagle’s Medium (DMEM; […] Each medium was supplemented with 10% fetal bovine serum, 0.5% penicillin/streptomycin (Gibco), and an additional 1% glutamine. Every 3 to 4 days, the medium was changed, and the cells were incubated until approximately 80% confluent. The cells were free from mycoplasma contamination after being checked by staining with 4,6-diamidino-2-phenylindole dihydrochloride (DAPI; Sigma-Aldrich, St. Louis). The cell detachment from the culture flask was done using TrypLE^TM Express (Gibco) after washing two times with Dulbecco’s phosphate-buffered saline (DPBS). Subsequently, viable cells were counted using a Neubauer Improved C-Chip (NanoEnTek Inc., Seoul, Korea) after staining with 0.4% trypan blue solution. The drug-exposure viability assay was performed in accordance with the recommendation for the Cell Counting Kit-8 (CCK-8; Dojindo, Kumamoto, Japan). Briefly, in a 96-well plate, 100 µl of cells at a density of 5 × 10^4 cells/ml were seeded per well and allowed to attach to the plate for 24 h at 37 °C in a humidified incubator with 5% CO2. Ten microliters of drug diluted two-fold were added to each well to a final concentration of 0.781 to 800 µM in triplicate. Wells with only a culture medium were used as blanks, while wells containing cells and a medium with 0.5% DMSO were used as positive controls. Drug exposure lasted for 24 h. After 24 h, 10 µl of CCK-8 was added, and the plate was further incubated for 3 h. Absorbance was measured at 450 nm using a microplate reader.

The test system of data set [4] is Babesia microti (Munich strain). The experiment in a line: in vivo growth inhibition and drug combination assays in B. microti-infected BALB/c mice. As to conditions: first assay; 35 mg/kg EA i.p., 5 days; peak on day 8; DDW control 57.7%. On the procedure:
as §1
In vivo growth inhibition assays of EA, β-CD EA and APSP EA were performed in B. microti-infected BALB/c mice in accordance with the previous protocol in two separate trials. […] The mice in groups 2–8 were intraperitoneally (i.p.) injected with 0.5 ml of inoculum (1 × 10^7 B. microti-iRBCs). Group 1 was left uninfected and untreated as a negative control. When the average parasitemia in all mice reached 1%, drug treatment was initiated for 5 consecutive days. […] DA at a concentration of 25 mg/kg body weight (BW) was administrated i.p. to the third group as a reference drug control.

For data set [5], the system named is B. bigemina (Argentina strain). The experiment in a line: in vitro growth inhibition assay (SYBR Green I fluorescence), single drug and 1:1 combination. In kind it is cell-based, Babesia bigemina. On the procedure: as §1, §2
In data set [6] the test system is L. major. Also on record: method as in PMID 28643086. Conditions: cited from earlier work.
Data set [7] has as its system B. caballi (USDA strain). The experiment in a line: in vitro growth inhibition assay (SYBR Green I fluorescence), single drug and 1:1 combination. Format: cell-based, Babesia caballi. On the procedure: as §1, §2

As for `O=c1oc2c(O)c(O)cc3c(=O)oc4c(O)c(O)cc1c4c23` [EA, Ellagic acid], the IC50 was 0.33 µM in data set [1]; 5.41 ± 2.8 µM in data set [2] (Babesia divergens, 96 h, B. divergens in vitro culture, 4 days); 7.87 ± 5.8 µM in data set [5] (Babesia bigemina, 96 h, B. bigemina in vitro culture, 4 days); 9.8 μg/ml^e in data set [6]; 3.29 ± 0.42 µM in data set [7] (Babesia caballi, 96 h, B. caballi in vitro culture, 4 days). Moreover, the “concentration that significantly inhibited the growth” value in data set [2] (B. divergens, t-test vs control) was found to be 0.125 µM; in data set [5] (B. bigemina, t-test vs control) it was 0.078 µM; in data set [7] (B. caballi, t-test vs control), 0.125 µM. Besides, in data set [3] (Bos taurus, MDBK, 24 h, MDBK cells, 24 h exposure, CCK-8), the EC50 is greater than 800 µM. The “Selective indices MDBK” value in data set [3] (EC50 MDBK / IC50 B. bigemina) was greater than 101.3; in data set [3] (EC50 MDBK / IC50 B. bovis), greater than 83.3; in data set [3] (EC50 MDBK / IC50 B. divergens) it was greater than 148.1; in data set [3] (EC50 MDBK / IC50 T. equi) it was greater than 106.7. Besides, in data set [3] (MDBK, 800 µM), the “inhibition of cell viability” value was “did not show any inhibition”. For the same molecule, in data set [4], the peak parasitemia level was 29.5%.
